Experimental data reported in US20260250318A1, “COMPOSITIONS AND METHODS FOR CROSSING THE BLOOD BRAIN BARRIER” (VOYAGER THERAPEUTICS, INC., priority 2022, published 2026).

What was measured:
[1] = test system: brains, heart, liver, muscle, and DRG of the NHPs; experiment: Maturation of TTM-001 and TTM-002 capsids, NGS enrichment in NHP tissues; assay type: in vivo; details: relative to AAV9 control
How it was run: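 Variants carry mutations within and flanking the loop IV peptide insert: positions 450–466 were triplet-randomized, while positions 449–466 received low-frequency point mutations. The combined pool went into two NHPs, and each peptide was scored by NGS enrichment ratio against AAV9.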

[2] = test system: brain; experiment: Matured TTM-001 and TTM-002 variants, NGS enrichment in mouse brain; assay type: in vivo, mice; details: relative to AAV9 control
[3] = test system: brain, spinal cord, and DRG of the NHPs; experiment: NGS fold enrichment of synthetic library (passage 3) in NHPs, first cross-species screen; assay type: in vivo, cynomolgus macaques (Macaca fascicularis); details: synthetic library passage 3, intravenous, RNA NGS, relative to wild-type AAV9
How it was run: (§1)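 Fold enrichment versus wild-type AAV9 was derived by NGS of RT-PCR-amplified RNA from nervous tissue, collected e.g. 28 days after IV dosing […]. The library (passage 3) was given to two NHPs aged 2-4 years and to 6-8-week BALB/c and C57Bl/6 mice (n=3 each).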

[4] = test system: brain; experiment: NGS fold enrichment of synthetic library (passage 3) in C57Bl/6 mice, first cross-species screen; assay type: in vivo; details: synthetic library passage 3, intravenous, RNA NGS, brain of C57Bl/6 mice, relative to wild-type AAV9
How it was run: as §1

[5] = test system: brain; experiment: NGS fold enrichment of synthetic library (passage 3) in BALB/c mice, first cross-species screen; assay type: in vivo; details: synthetic library passage 3, intravenous, RNA NGS, brain of BALB/c mice, relative to wild-type AAV9
How it was run: as §1

[6] = NGS fold-enrichment of matured AAV capsid variants, NHP brain, RNA
[7] = NGS fold-enrichment, DRG of NHPs
[8] = NGS fold-enrichment, RNA, brain of NHPs
[9] = NGS fold-enrichment, heart of NHPs
[10] = NGS fold-enrichment, liver DNA of NHPs
[11] = NGS fold-enrichment, liver RNA of NHPs
[12] = NGS fold-enrichment, muscle of NHPs
[13] = NGS fold-enrichment, brain of mice
[14] = NGS fold-enrichment of RNA, NHP brain
[15] = NGS fold-enrichment, NHP liver DNA
[16] = NGS fold-enrichment, NHP liver RNA
[17] = NGS fold-enrichment, NHP muscle
[18] = NGS fold-enrichment, mouse brain

| Sequence | Fold Enrichment relative to AAV9, Brain (NHP) [1, 6] | Fold Enrichment relative to AAV9, DRG (NHP) ([1]; NHP DRG) | Fold Enrichment relative to AAV9, Heart (NHP) ([1]; NHP heart) | Fold Enrichment relative to AAV9, Liver DNA (NHP) ([1]; NHP liver, DNA) | Fold Enrichment relative to AAV9, Liver RNA (NHP) ([1]; NHP liver, RNA) | Fold Enrichment relative to AAV9, Muscle (NHP) ([1]; NHP muscle) | Fold Enrichment relative to AAV9, Brain (Mouse) ([2]; mouse brain) | Fold Enrichment relative to AAV9, DRG (NHP) [1, 7] | Fold Enrichment relative to AAV9, Brain (NHP) [1, 8] | Fold Enrichment relative to AAV9, Heart (NHP) [1, 9] | Fold Enrichment relative to AAV9, Liver DNA (NHP) [1, 10] | Fold Enrichment relative to AAV9, Liver RNA (NHP) [1, 11] | Fold Enrichment relative to AAV9, Muscle (NHP) [1, 12] | Fold Enrichment relative to AAV9, Brain (Mouse) [2, 13] | further results |
| --- | --- | --- | --- | --- | --- | --- | --- | --- | --- | --- | --- | --- | --- | --- | --- |
| KTIPMEGSPHSKAQNQQT | 56.560 fold | 0.000 fold | 0.000 fold | 0.371 fold | 1.824 fold | 0.000 fold | 89.951 fold |  |  |  |  |  |  |  |  |
| KTINGSGSPHSKAQSKVT | 56.373 fold | 0.000 fold | 0.050 fold | 0.390 fold | 1.021 fold | 0.014 fold | 76.115 fold |  |  |  |  |  |  |  |  |
| KTINGGGSPHSKAQNPPT |  |  |  |  |  |  |  | 0.000 fold | 63.041 fold | 0.082 fold | 0.057 fold | 0.000 fold | 0.000 fold | 64.045 fold |  |
| KTESASGSPHSKAQNQQT |  |  |  |  |  |  |  | 0.000 fold | 68.651 fold | 0.000 fold | 0.084 fold | 0.274 fold | 0.000 fold | 80.500 fold |  |
| KTINGSGSPHSKAQSPPT |  |  |  |  |  |  |  | 0.069 fold | 71.632 fold | 0.047 fold | 0.425 fold | 0.179 fold | 0.274 fold | 97.111 fold |  |
| KTERNSGSPHSKAQNQQT |  |  |  |  |  |  |  | 0.000 fold | 99.892 fold | 0.000 fold | 0.107 fold | 0.000 fold | 0.000 fold | 87.392 fold | Fold Enrichment relative to AAV9, Brain (NHP) [1, 14]: 99.892 fold; Fold Enrichment relative to AAV9, DRG (NHP) ([1]; NGS fold-enrichment, NHP DRG): 0.000 fold; Fold Enrichment relative to AAV9, Heart (NHP) ([1]; NGS fold-enrichment, NHP heart): 0.000 fold; Fold Enrichment relative to AAV9, Liver DNA (NHP) [1, 15]: 0.107 fold; Fold Enrichment relative to AAV9, Liver RNA (NHP) [1, 16]: 0.000 fold; Fold Enrichment relative to AAV9, Muscle (NHP) [1, 17]: 0.000 fold; Fold Enrichment relative to AAV9, Brain (Mouse) [2, 18]: 87.392 fold |
| KTINGSGSPHSKAQVGHT | 52.624 fold | 0.000 fold | 0.000 fold | 0.192 fold | 0.535 fold | 0.006 fold | 106.448 fold |  |  |  |  |  |  |  |  |
| KTINKEGSPHSKAQNQQT | 53.006 fold | 0.000 fold | 0.029 fold | 0.111 fold | 0.177 fold | 0.000 fold | 64.520 fold |  |  |  |  |  |  |  |  |
| KTINGSGSPHSKAPSNQT | 52.680 fold | 1.494 fold | 4.762 fold | 0.208 fold | 0.330 fold | 0.003 fold | 87.951 fold |  |  |  |  |  |  |  |  |
| KTIQDGGSPHSKAQNQQT |  |  |  |  |  |  |  | 0.000 fold | 59.865 fold | 0.000 fold | 0.789 fold | 1.435 fold | 0.116 fold | 87.522 fold |  |
| KTINGSGSPHAKAQNHQT | 50.667 fold | 0.211 fold | 0.140 fold | 0.090 fold | 0.101 fold | 0.051 fold | 80.603 fold |  |  |  |  |  |  |  |  |
| KTEYNSGSPHSKAQNQQT | 50.256 fold | 0.000 fold | 0.000 fold | 0.009 fold | 0.000 fold | 0.000 fold | 62.679 fold |  |  |  |  |  |  |  |  |
| KAIKGSGSPHSKAQDQQT |  |  |  |  |  |  |  | 0.000 fold | 82.258 fold | 0.000 fold | 0.000 fold | 0.108 fold | 0.000 fold | 85.178 fold | Fold Enrichment relative to AAV9, Brain (NHP) [1, 14]: 82.258 fold; Fold Enrichment relative to AAV9, DRG (NHP) ([1]; NGS fold-enrichment, NHP DRG): 0.000 fold; Fold Enrichment relative to AAV9, Heart (NHP) ([1]; NGS fold-enrichment, NHP heart): 0.000 fold; Fold Enrichment relative to AAV9, Liver DNA (NHP) [1, 15]: 0.000 fold; Fold Enrichment relative to AAV9, Liver RNA (NHP) [1, 16]: 0.108 fold; Fold Enrichment relative to AAV9, Muscle (NHP) [1, 17]: 0.000 fold; Fold Enrichment relative to AAV9, Brain (Mouse) [2, 18]: 85.178 fold |
| KTSNASGSPHSKAHNQQT |  |  |  |  |  |  |  | 0.000 fold | 59.607 fold | 0.078 fold | 0.050 fold | 0.031 fold | 0.067 fold | 67.967 fold |  |
| KEVQGSGSPHSKAQNQQT | 58.125 fold | 0.000 fold | 0.000 fold | 0.000 fold | 0.657 fold | 0.000 fold | 168.220 fold |  |  |  |  |  |  |  |  |
| GSGFLSDTRQNQQT |  |  |  |  |  |  |  |  |  |  |  |  |  |  | Fold enrichment over AAV9 in the brain of NHPs ([3]; brain of NHPs): 1.566 fold; Fold enrichment over AAV9 in the spinal cord of NHPs ([3]; spinal cord of NHPs): 45.953 fold; Fold enrichment over AAV9 in the brain of Mice (C57Bl/6) [4]: 0.473 fold; Fold enrichment over AAV9 in the brain of Mice (BALB/c) [5]: 0.575 fold |
